Experiments:
NPR2 [1] = settings: cantharidin 100 μM (Shuhaibar et al., 2017); cited from earlier work
PPP1 = settings: same conditions, DiFMUP; Richard Honkanen, personal communication; cited from earlier work
NPR2 [2] = assay: Phos-tag gel electrophoresis / western blot of NPR2 in rib chondrocyte cultures; format: cell-based, mouse
Protocol: Rib cages were dissected from newborn (0-2 day old) mice, and trimmed to remove the skin, spinal cord, and soft tissue around the sternum and ribs. Non-chondrocyte tissue was digested away by incubating the rib cages in 2 mg/ml pronase in PBS for one hour in a shaking water bath at 37° C., and then incubated in 3 mg/ml collagenase D in medium for one hour. After washing, the rib cages were transferred to a dish with fresh collagenase D and incubated for 5-6 hours, with trituration at 2 hours, to release the chondrocytes. The isolated cells were passed through a 40 um nylon cell strainer, resuspended in DMEM/F12 medium with 10% fetal bovine serum, 100 units/ml of penicillin, and 100 μg/m1 of streptomycin, and plated in 35 mm tissue culture dishes, at a cell density corresponding to one newborn mouse per plate. The cells were cultured for 3 days, at which point they were ˜75-90% confluent, then washed with PBS and incubated in serum-free medium for 18 hours. The cells were then incubated in LB-100 (10 μM), or control medium, followed by addition of FGF18 (0.5 ug/ml+1 μg/ml heparin) or control medium containing heparin only.
At end of the incubation period, dishes were washed in PBS and cells lysed in 250 μl of 1% SDS containing 10 mM sodium fluoride, 1 μM microcystin, and Roche protease inhibitor cocktail. Protein content was determined by a BCA assay. […]

PPPS = biological target: T1, PPPS (Homo sapiens, UniProt P53041); settings: in vitro, DiFMUP as substrate (D'Arcy et al., 2019); cited from earlier work
T1 sequence (P53041 1-499): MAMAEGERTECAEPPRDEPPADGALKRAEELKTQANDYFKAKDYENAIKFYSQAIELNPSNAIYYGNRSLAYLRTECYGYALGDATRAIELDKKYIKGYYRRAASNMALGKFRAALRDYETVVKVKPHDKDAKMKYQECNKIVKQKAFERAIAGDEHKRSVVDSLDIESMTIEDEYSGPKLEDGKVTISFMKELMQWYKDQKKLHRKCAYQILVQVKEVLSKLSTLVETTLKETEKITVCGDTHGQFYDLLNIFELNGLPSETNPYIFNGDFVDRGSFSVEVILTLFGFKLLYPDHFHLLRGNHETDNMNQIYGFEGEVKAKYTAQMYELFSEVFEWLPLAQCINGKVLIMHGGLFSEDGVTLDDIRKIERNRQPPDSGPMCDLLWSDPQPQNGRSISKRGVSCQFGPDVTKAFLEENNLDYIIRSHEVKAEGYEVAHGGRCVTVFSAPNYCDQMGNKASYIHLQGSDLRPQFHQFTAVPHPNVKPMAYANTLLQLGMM

Fgfr3^Y367C/+ femurs = assay: Ex vivo culture of fetal femurs from Fgfr3^Y367C/+ mice (growth in length and area); format: cell-based, mouse; settings: E16.5 Fgfr3^Y367C/+ femurs, 6 day culture; BMN-111 0.1 μM, LB-100 10 μM
Protocol: (§1) FIG. 1. LB-100 and BMN-111 act synergistically to stimulate growth in fetal femurs from Fgfr3^Y367C/+ mice.(A) Diagram showing sites of action of LB-100 and BMN-111. (B) Representative photographs of fetal femurs from E16.5 day old Fgfr3+/+ (wildtype) and Fgfr3^Y367+ mice, before (D0) and after a 6 day (D6) culture with the indicated treatments. […] For all experiments, the concentration of BMN-111 was 0.1 μM, and the concentration of LB-100 was 10 μM. Symbols in graphs C-E indicate individual bones (n=4−10). Bars represent mean ±SEM and data were analyzed by unpaired two-tailed t-tests. Asterisks indicate significant differences (p<0.05) between indicated groups; n.s. indicates no significant difference (p>0.05).
(§2) Femurs were cultured ex vivo, as described previously (Jonquoy et al., 2012; Lorget et al., 2012). The left femur was cultured in the presence of LB-100 (10 μM), BMN-111 (0.1 μM), or LB-100 (10 μM)+BMN-111 (0.1 μM), and compared with the non-treated right femur. The bone's length was measured on day 0 (D0) and day 6 (D6). Images were captured with an Olympus SZX12 stereo microscope and quantified using cellSens software (Olympus). The results were expressed as the increase in femur length or area (D6-D0) in the presence or absence of LB-100, BMN-111, or LB-100+BMN-111.

[3] = Chung et al., 2017; cited from earlier work
PPP2 = PPP2 (Homo sapiens, UniProt P67775); settings: in vitro, DiFMUP as substrate (D'Arcy et al., 2019); cited from earlier work
Sequence of PPP2 (P67775 whole entry, the tested form may be a part): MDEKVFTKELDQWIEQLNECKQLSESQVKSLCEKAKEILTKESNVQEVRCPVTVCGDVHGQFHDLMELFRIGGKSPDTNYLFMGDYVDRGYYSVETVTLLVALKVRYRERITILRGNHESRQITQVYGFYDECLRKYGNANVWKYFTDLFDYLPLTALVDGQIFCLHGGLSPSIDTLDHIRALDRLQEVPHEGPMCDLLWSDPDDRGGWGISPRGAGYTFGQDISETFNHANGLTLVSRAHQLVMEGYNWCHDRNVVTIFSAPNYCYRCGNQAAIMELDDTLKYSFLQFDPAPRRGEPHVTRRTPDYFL

NPR2 [4] = assay: cGMP production in tibia growth plates using cGi500 FRET sensor; format: cell-based, mouse; settings: for CNP-induced cGMP increase after FGF treatment: then FGF 80 min, newborn mouse tibia; for cGMP (CFP/YFP emission ratio from cGi500) on perfusion across the growth plate: newborn mouse tibia growth plate
Protocol: cGMP production in chondrocytes within intact growth plates was measured using tibias dissected from newborn mice (0-1 day old) that globally expressed one or two copies of the cGi500 FRET sensor, as previously described (Shuhaibar et al., 2017).Tibias were dissected and cultured overnight on Millicell membranes in BGJb medium with 0.1% bovine serum albumin, 100 units/ml of penicillin, and 100 μg/ml of streptomycin. In preparation for imaging, each tibia was slit to remove the tissue overlying the growth plate. Where indicated, the tibia was incubated in LB-100, cantharidin, or control medium, followed by addition of FGF18 (0.5 μg/ml+1 μg/ml heparin) or control medium containing heparin only. The tibia was then placed in a perfusion slide and the growth plate was imaged on the stage of a confocal microscope, as previously described (Shuhaibar et al., 2017).
NPR2 activity in chondrocytes of intact growth plates was measured as previously described, using mice expressing a FRET sensor for cGMP, cGi500 (Shuhaibar et al., 2017). Tibias were isolated from newborn mice, and the overlying tissue was excised to expose the growth plate for confocal imaging (Data not shown). When the NPR2 agonist C-type natriuretic peptide (CNP) was perfused across the growth plate, the CFP/YFP emission ratio from cGi500 increased, indicating an increase in cGMP, due to stimulation of the guanylyl cyclase activity of NPR2 (Data not shown).
To investigate if LB-100 counteracts the inactivation of NPR2 by FGF, we used the following protocol:Tibias expressing cGi500 were preincubated with solutions of 1, 5 or 10 μM LB-100 for 60 minutes. FGF was then added and the incubation was continued for an additional 80 minutes. Following these incubations, the tibia was placed in a perfusion slide for confocal imaging, and cGMP production by NPR2 was monitored by measuring the increase in CFP/YFP emission ratio in response to CNP.

Fgfr3+/+ femurs = assay: Ex vivo culture of fetal femurs from Fgfr3+/+ mice (growth in length and area); format: cell-based, mouse; settings: BMN-111 0.1 μM, LB-100 10 μM, 6 day culture
Protocol: as §1, §2

[5] = system: growth plates of Fgfr3^Y367C/+ femurs; assay: Histology and immunohistochemistry of growth plates of ex vivo cultured Fgfr3^Y367C/+ femurs; format: cell-based, mouse
Protocol: FIG. 2. Dual action of LB-100 and BMN-111 improves chondrocyte differentiation in growth plates of ex-vivo cultured Fgfr3^Y367C/+ femurs. Mean area of individual hypertrophic chondrocytes in proximal growth plates of femurs treated (n=4−6 bones measured for each condition, with 54-137 cells measured for each bone). Data were analyzed by one-way ANOVA followed by the Holm-Sidak multiple comparison test (*p<0.05, **p<0.01, ****p<0.0001).
Fetal femur (E16.5) explants were fixed in 4% paraformaldehyde, decalcified with EDTA (0.4 M), and embedded in paraffin. Serial 5 μm sections were stained with hematoxylin-eosin-safran (HES) reagent, using standard protocols. For immunohistochemical assessment, sections were labeled with the following antibodies and a Dako Envision Kit: anti-COL X (BIOCYC, N.2031501005; 1:50 dilution), anti-phosphorylated ERK1-2 ([…]) (Cell Signaling Technology, #4370; 1:100 dilution), and anti-S0X9 (polyclonal antibody, Santa Cruz Biotechnology Inc., catalog D0609; dilution 1:75). Images were captured with an Olympus PD70-IX2-UCB microscope and quantified using cellSens software.
We measured the total area occupied by chondrocytes within the whole growth plate and the area occupied by COLX-positive chondrocytes. The area for proliferating chondrocytes was calculated by subtracting the COLX-positive area from the whole growth plate area.

[6] = system: children 5 to 14 years of age with achondroplasia; settings: for up to 42 months; Savarirayan et al., 2019; cited from earlier work

For `C[C@@]12C(=O)OC(=O)[C@]1(C)[C@H]1CC[C@@H]2O1` [cantharidin], the “Inactivation of NPR2 in growth plate chondrocytes by FGF” value (NPR2 [1]) is listed as “inhibits the inactivation of NPR2 in growth plate chondrocytes by FGF”.

In the case of `CN1CCN(C(=O)C2C3CCC(O3)C2C(=O)O)CC1` (stereo not drawn) [LB-100, 3-(4-methylpiperazine-1-carbonyl)-7-oxabicyclo[2.2.1]heptane-2-carboxylic acid], the IC50 (PPP1) is listed as 1800 ± 22 nM, the “Cell morphology of rib chondrocytes” value (NPR2 [2]; 1 hour incubation with 10 μM LB-100) is listed as “did not cause any visible change in cell morphology” and the “NPR2 dephosphorylation in response to FGF” value (NPR2 [2]; preincubation with 10 μM LB-100, primary rib chondrocytes) is listed as “only partial”. The IC50 (PPPS) was 1820 ± 93 nM, the “Mean rate of increase in bone length relative to vehicle/untreated bones (growth rate ratio)” value (Fgfr3^Y367C/+ femurs) was 1.04 and the “Rate of increase of total bone and cartilage area relative to control (growth rate ratio)” value (Fgfr3^Y367C/+ femurs) was 1.40. The “Toxicity in phase I clinical trial” value [3] was “little toxicity”, the IC50 (PPP2) was 390 ± 13 nM and the “CNP-induced cGMP increase after FGF treatment” value (“CNP-induced cGMP increase” for short) (NPR2 [4]; 1 μM LB-100 preincubation 60 min) was “had no effect”. The “Effectiveness in counteracting NPR2 inactivation by FGF compared with cantharidin” value (NPR2 [4]; 5 μM LB-100 equivalent to 10 μM cantharidin) was “more effective than cantharidin”, the “CNP-induced cGMP increase” value (NPR2 [4]; 5 μM LB-100 preincubation 60 min) was “enhanced” and the “Chondrocyte morphology in live growth plate (toxicity)” value (NPR2 [4]; 10 μM LB-100, confocal microscopy) was “no visible change in chondrocyte morphology”. The “CNP-induced cGMP increase” value (NPR2 [4]; 10 μM LB-100 preincubation 60 min) was “enhanced”.

For “ANP: A-type natriuretic peptide, which activates the NPR1 guanylyl cyclase”, the “cGMP (CFP/YFP emission ratio from cGi500) on perfusion across the growth plate” value (NPR2 [4]) was “did not increase cGMP”.

With “[Cyc(23,39)]H2NPGQEHPNARKYKGANKKGLSKGCFGLKLDRIGSMSGLGC—OH [BMN-111]” the “Rate of bone growth (length and area)” value (Fgfr3+/+ femurs) was “increased the rate of bone growth”, the “Mean rate of increase in bone length relative to vehicle/untreated bones (growth rate ratio)” value (Fgfr3^Y367C/+ femurs) was 1.77 and the “Rate of increase of total bone and cartilage area relative to control (growth rate ratio)” value (Fgfr3^Y367C/+ femurs) was 1.51. For the same molecule, the “Size of Fgfr3^Y367C/+ hypertrophic chondrocytes” value ([5]; COLX immunostaining, ex vivo cultured femurs) was “increased the size”, the “Increase of total proliferative growth plate area of the femur over vehicle” value ([5]; Fgfr3^Y367C/+ femurs, average) was 20% and the “NPR2 activity in growth plate chondrocytes” value (NPR2 [4]; BMN-111 0.1 μM) was “stimulated NPR2 activity”. The “Annualized growth velocity in phase 2” value [6] was “sustained increase in annualized growth velocity”.

With `CCN(CC)/[N+]([O-])=N/O` [DEA/NO] the “cGMP (CFP/YFP emission ratio from cGi500) on perfusion across the growth plate” value (NPR2 [4]) was “did not increase cGMP”.

B1: FGF18: fibroblast growth factor used with heparin to activate FGF receptor (protein, UniProt O76093 28-207, looked up)
Fibroblast growth factor 18: EENVDFRIHVENQTRARDDVSRKQLRLYQLYSRTSGKHIQVLGRRISARGEDGDKYAQLLVETDTFGSQVRIKGKETEFYLCMNRKGKLVGKPDGTSKECVFIEKVLENNYTALMSAKYSGWYVGFTKKGRPRKGPKTRENQQDVHFMKRYPKGQPELQKPFKYTTVTKRSRRIRPTHPA
For B1, the “cGMP increase in response to CNP perfusion after exposure to FGF18” value (NPR2 [4]; FGF18 0.5 μg/ml + 1 μg/ml heparin) was “suppressed the cGMP increase in response to CNP perfusion”.

Source: patent US20230233553A1, “A NEW COMBINATION THERAPY FOR THE TREATMENT OF FGFR3- RELATED SKELETAL DISEASE” (INSERM (INSTITUT NATIONAL DE LA SANTÉ ET DE LA RECHERCHE …, priority 2020, published 2023)
